Test [1] has as its target T1, PI3K-α kinase (p110α/p85α) (Homo sapiens, UniProt P42336).
T1 construct: purchased Invitrogen PV4788
Description: Determination of PI3K kinase activity (ADP Transcreener, fluorescence polarization). In kind it is biochemical. Particulars: for IC50: ATP 10 μM; for increase of inhibitory activity against PI3K-α kinase compared with BKM-120: relative to BKM-120.

Test [2] deals with T2, PI3K-β kinase (p110β/p85α) (Homo sapiens, UniProt P42338).
T2 construct: purchased Millipore 14-603
The test is described as above. In kind it is biochemical. The settings on record: Table 1; ATP 10 μM; read-out: PI3K-β/nM (IC50 of inhibitory activity against PI3K kinase).

For test [3], the target named is T3, PI3K-δ kinase (p110δ/p85α) (Homo sapiens, UniProt O00329).
T3 construct: purchased Millipore 14-604M
The test is described as above. In kind it is biochemical. Particulars: Table 1; ATP 10 μM; read-out: PI3K-δ/nM (IC50 of inhibitory activity against PI3K kinase).

In test [4] the test system is MCF-7 cells. Description: Cell inhibitory activity detected by MTT assay, MCF-7. In kind it is cell-based. The settings on record: Homo sapiens, MCF7, 72 h, read-out: MCF-7 cell (IC50/nM), cell growth inhibition. In outline: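 MCF-7 cells in DMEM + 10% FBS were treated after adherence with compounds at 8 concentrations (0.0046–10 μM) for 72 h at 37 °C, 5% CO2.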
Where [5] appears, read: Table 1, read-out: PI3K-α/nM (IC50 of inhibitory activity against PI3K kinase).
Setting [6] is: Table 2, read-out: PI3K-α/nM (IC50 of inhibitory activity against PI3K-α kinase).

SMILES strings stand for the structures. Read-outs that look alike come from different tables or passages of the source.

The record followed here is patent US10227324B2 (Shanghai Haiyan Pharmaceutical Technology Co., Ltd., priority 2014, dated 2019).

T2 sequence (P42338 whole entry): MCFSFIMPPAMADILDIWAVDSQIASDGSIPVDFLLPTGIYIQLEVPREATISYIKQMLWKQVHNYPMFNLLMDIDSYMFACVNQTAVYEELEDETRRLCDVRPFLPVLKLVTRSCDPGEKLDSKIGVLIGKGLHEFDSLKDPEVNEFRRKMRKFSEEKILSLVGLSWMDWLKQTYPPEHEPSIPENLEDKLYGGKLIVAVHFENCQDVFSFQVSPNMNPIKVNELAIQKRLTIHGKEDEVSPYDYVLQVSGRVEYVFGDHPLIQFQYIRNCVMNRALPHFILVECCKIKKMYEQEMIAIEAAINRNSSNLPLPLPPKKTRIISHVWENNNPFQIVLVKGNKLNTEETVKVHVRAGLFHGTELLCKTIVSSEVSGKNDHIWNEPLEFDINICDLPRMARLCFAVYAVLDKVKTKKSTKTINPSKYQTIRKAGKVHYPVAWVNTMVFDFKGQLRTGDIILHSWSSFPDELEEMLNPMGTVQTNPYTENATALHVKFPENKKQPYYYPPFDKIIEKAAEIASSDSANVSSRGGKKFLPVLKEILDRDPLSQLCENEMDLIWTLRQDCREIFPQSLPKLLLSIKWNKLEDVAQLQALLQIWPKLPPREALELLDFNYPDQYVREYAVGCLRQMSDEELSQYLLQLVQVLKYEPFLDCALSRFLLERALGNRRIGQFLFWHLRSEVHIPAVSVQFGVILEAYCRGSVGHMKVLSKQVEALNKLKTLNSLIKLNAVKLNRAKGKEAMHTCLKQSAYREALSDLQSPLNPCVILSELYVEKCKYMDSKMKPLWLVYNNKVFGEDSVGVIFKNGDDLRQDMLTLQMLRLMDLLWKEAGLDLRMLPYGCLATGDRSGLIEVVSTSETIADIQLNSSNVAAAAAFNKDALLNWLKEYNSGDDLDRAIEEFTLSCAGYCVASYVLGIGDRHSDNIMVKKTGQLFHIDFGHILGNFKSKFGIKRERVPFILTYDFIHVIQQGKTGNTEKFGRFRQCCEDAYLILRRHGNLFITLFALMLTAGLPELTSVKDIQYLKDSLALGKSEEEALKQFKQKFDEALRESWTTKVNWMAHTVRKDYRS
T2 sequence (P27986 whole entry partner): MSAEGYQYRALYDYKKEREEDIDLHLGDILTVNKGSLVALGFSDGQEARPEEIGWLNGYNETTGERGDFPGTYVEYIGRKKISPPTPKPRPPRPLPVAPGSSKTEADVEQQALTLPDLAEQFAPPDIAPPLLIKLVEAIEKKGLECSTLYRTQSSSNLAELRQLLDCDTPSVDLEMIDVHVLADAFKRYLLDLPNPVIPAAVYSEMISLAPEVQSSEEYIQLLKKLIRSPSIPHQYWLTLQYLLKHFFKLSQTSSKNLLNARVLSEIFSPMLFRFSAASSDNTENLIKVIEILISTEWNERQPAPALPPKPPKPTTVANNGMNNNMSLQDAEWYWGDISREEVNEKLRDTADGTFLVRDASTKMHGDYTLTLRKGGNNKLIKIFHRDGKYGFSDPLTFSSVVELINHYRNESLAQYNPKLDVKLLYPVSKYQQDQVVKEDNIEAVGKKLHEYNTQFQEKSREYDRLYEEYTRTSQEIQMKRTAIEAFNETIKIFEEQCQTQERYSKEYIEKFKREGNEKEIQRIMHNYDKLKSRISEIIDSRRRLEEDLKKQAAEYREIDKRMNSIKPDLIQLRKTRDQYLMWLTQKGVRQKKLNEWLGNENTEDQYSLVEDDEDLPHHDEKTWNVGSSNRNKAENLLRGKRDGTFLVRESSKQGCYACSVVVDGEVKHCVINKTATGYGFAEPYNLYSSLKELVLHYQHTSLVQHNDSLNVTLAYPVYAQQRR
T3 sequence (O00329 whole entry): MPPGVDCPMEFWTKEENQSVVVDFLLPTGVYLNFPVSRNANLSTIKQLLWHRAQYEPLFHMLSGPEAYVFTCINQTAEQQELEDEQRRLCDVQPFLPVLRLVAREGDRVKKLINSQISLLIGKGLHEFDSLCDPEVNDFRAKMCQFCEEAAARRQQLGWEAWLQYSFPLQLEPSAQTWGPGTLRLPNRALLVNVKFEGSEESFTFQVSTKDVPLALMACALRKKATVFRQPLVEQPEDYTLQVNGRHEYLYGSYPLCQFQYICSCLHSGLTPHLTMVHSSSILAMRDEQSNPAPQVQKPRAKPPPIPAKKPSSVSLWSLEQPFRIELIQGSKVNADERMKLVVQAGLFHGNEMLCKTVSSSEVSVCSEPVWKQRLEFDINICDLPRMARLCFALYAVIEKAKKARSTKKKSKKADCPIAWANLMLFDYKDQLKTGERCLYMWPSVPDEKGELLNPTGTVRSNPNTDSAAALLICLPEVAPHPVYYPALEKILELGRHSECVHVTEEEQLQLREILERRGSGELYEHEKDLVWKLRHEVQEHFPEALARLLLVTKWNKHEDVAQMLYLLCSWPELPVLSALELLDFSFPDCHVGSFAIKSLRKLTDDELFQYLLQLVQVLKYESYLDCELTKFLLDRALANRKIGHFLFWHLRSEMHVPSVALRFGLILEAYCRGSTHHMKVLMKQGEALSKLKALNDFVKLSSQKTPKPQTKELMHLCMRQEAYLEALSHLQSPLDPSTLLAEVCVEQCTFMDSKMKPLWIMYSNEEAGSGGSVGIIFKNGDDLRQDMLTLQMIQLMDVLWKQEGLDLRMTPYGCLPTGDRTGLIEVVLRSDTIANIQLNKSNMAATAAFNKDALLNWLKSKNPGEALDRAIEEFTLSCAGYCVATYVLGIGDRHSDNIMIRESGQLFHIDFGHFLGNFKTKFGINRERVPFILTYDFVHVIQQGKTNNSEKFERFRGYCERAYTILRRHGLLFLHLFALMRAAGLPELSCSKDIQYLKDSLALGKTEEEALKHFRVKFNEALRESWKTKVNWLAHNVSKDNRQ
T3 sequence (P27986 whole entry partner): as the sequence (P27986 whole entry partner) above
T1 sequence (P42336 whole entry): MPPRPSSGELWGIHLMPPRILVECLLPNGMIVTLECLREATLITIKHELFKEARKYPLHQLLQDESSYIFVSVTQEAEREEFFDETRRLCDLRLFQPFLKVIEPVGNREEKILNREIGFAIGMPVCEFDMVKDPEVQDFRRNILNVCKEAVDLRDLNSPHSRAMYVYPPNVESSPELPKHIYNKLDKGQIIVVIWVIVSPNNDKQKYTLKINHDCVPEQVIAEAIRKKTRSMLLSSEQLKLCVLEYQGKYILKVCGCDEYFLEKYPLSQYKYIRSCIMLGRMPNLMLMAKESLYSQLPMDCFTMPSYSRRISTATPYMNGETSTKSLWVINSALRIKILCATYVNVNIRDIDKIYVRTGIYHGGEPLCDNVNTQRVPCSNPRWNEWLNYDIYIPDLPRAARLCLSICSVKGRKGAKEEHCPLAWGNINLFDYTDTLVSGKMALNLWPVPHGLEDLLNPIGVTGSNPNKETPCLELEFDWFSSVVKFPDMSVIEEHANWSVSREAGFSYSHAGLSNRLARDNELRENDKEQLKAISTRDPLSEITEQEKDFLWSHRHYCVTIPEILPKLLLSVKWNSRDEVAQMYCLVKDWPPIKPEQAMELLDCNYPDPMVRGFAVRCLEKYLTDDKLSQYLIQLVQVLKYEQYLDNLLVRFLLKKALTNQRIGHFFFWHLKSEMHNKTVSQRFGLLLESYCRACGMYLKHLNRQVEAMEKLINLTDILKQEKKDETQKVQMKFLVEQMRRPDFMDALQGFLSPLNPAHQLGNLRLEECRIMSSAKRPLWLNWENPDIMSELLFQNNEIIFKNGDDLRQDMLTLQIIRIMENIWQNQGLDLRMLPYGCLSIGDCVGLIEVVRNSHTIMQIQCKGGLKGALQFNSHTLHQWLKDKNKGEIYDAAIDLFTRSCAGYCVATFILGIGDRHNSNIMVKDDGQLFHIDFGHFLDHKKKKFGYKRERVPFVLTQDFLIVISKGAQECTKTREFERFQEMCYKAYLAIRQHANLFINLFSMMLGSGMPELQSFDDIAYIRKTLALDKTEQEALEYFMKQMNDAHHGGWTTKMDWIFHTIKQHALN
T1 sequence (P27986 whole entry partner): as the sequence (P27986 whole entry partner) above

`CCS(=O)(=O)C1(c2cc(-c3cnc(N)cc3C(F)(F)F)nc(N3CCOC[C@@H]3C)n2)CCC1` [Compound S-23]: the IC50 in test [1] (setting [5]) stood at 16 nM; in test [2], 620 nM; in test [3], 62 nM; in test [4] it was 246 nM.
On to `Nc1cc(Cl)c(-c2cc(C3(S(=O)(=O)c4ccccc4F)CC3)nc(N3CCOCC3)n2)cn1` [Compound S-66], for which the IC50 in test [1] (setting [5]) came to 9 nM; in test [1] (setting [6]), 9 nM; in test [2] it was 73 nM; in test [3], 46 nM; in test [4], 212 nM.
In the case of `C[C@H]1COCCN1c1nc(-c2cnc(N)cc2F)cc(C2(S(C)(=O)=O)CC2)n1` [Compound S-83], the results for the IC50 in test [1] (setting [5]) and in test [4] were 20 nM and 11 nM, respectively.
On to `C[C@H]1COCCN1c1nc(-c2cnc(N)nc2)cc(C2(S(C)(=O)=O)CCC2)n1` [Compound S-33], for which the IC50 in test [1] (setting [5]) worked out at 12 nM; in test [2], 115 nM; in test [3], 58 nM; in test [4], 79 nM.
With `Nc1cc(C(F)(F)F)c(-c2cc(C3(S(=O)(=O)c4ccccc4F)CC3)nc(N3CCOCC3)n2)cn1` [Compound S-58], the IC50 in test [1] (setting [5]) came out at 4 nM; in test [2], 72 nM; in test [3] it was 33 nM; in test [4], 184 nM.
Turning to `CCS(=O)(=O)C1(c2cc(-c3cnc(N)cc3C(F)(F)F)nc(N3CCOCC3)n2)CCC1` [Compound S-49, 5-(6-(1-(ethylsulfonyl)cyclobutyl)-2-morpholinopyrimidin-4-yl)-4-(trifluoromethyl)pyridin-2-amine], the IC50 in test [1] (setting [5]) was 17 nM; in test [2], 327 nM; in test [3], 85 nM; in test [4], 187 nM.
In the case of `C[C@H]1COCCN1c1nc(-c2cnc(N)cc2C(F)(F)F)cc(C2(S(C)(=O)=O)CCC2)n1` [Compound S-9], the IC50 in test [1] (setting [5]) worked out at 5 nM; in test [2], 105 nM; in test [3], 63 nM; in test [4], 78 nM. Besides, the “increase of inhibitory activity against PI3K-α kinase compared with BKM-120” value in test [1] is “about 10 times”.
As to `C[C@H]1COCCN1c1nc(-c2cnc(N)cc2C(F)(F)F)cc(C(C)(C)S(C)(=O)=O)n1` [Compound S-41], the IC50 in test [1] (setting [5]) turned out to be 6 nM; in test [2] it was 82 nM; in test [3], 79 nM; in test [4] it was 170 nM.
On to `CC(C)S(=O)(=O)C1(c2cc(-c3cnc(N)cc3F)nc(N3CCOCC3)n2)CC1` [Compound S-86], for which the IC50 came to 26 nM in test [1] (setting [5]); 26 nM in test [1] (setting [6]); 763 nM in test [2]; 397 nM in test [3]; 29 nM in test [4].
As to `CC(C)S(=O)(=O)C1(c2cc(-c3cnc(N)cc3C(F)(F)F)nc(N3CCOCC3)n2)CC1` [Compound S-18], the IC50 in test [2] was 548 nM; in test [3], 246 nM; in test [4] it was 437 nM.
On to `CC(C)S(=O)(=O)C1(c2cc(-c3cnc(N)cc3C(F)(F)F)nc(N3CCOC[C@@H]3C)n2)CCC1` [Compound S-13, (S)-5-(6-(1-(isopropylsulfonyl)cyclobutyl)-2-(3-methylmorpholino)pyrimidin-4-yl)-4-(trifluoromethyl)pyridin-2-amine], for which the IC50 in test [1] (setting [5]) was 67 nM; in test [2], 1670 nM; in test [3], 226 nM; in test [4], 153 nM.
With `C[C@@H]1COCCN1c1nc(-c2cnc(N)cc2Cl)cc(C(C)(C)S(C)(=O)=O)n1` [Compound S-67], the IC50 worked out at 6 nM in test [1] (setting [5]); 6 nM in test [1] (setting [6]); 208 nM in test [2]; 59 nM in test [3]; 105 nM in test [4].
Regarding `C[C@H]1COCCN1c1nc(-c2cnc(N)nc2C(F)(F)F)cc(C2(S(C)(=O)=O)CCC2)n1` [Compound S-30], the IC50 in test [1] (setting [5]) is 12 nM; in test [2] it was 18 nM; in test [3], 12 nM; in test [4], 101 nM.
For the compound `CCS(=O)(=O)C1(c2cc(-c3cnc(N)cc3F)nc(N3CCOCC3)n2)CC1` [Compound S-85], the IC50 in test [1] (setting [5]) was 29 nM; in test [1] (setting [6]), 29 nM; in test [2], 484 nM; in test [3], 228 nM; in test [4] it was 25 nM.
In the case of `CS(=O)(=O)C1(c2cc(-c3cnc(N)cc3Cl)nc(N3CCOCC3)n2)CC1` [Compound S-37, 4-chloro-5-(6-(1-(methylsulfonyl)cyclopropyl)-2-morpholinopyrimidin-4-yl)pyridin-2-amine], the IC50 in test [1] (setting [5]) came out at 4 nM; in test [1] (setting [6]), 4 nM; in test [2], 28 nM; in test [3] it was 84 nM; in test [4], 258 nM. Further, the “increase of inhibitory activity against PI3K-α kinase compared with BKM-120” value in test [1] was “about 10 times”.
Consider `COC(C)(C)c1cc(-c2cnc(N)cc2C(F)(F)F)nc(N2CCOCC2)n1` [Compound S-71, 5-(6-(2-methoxypropan-2-yl)-2-morpholinopyrimidin-4-yl)-4-(trifluoromethyl) pyridin-2-amine], for which the IC50 turned out to be 9 nM in test [1] (setting [5]), 177 nM in test [2] and 436 nM in test [4].
Regarding `CS(=O)(=O)C(F)(F)c1cc(-c2cnc(N)cc2Cl)nc(N2CCOCC2)n1` [Compound S-54, 4-chloro-5-(6-(difluoro(methylsulfonyl)methyl)-2-morpholinopyrimidin-4-yl)pyridin-2-amine], the IC50 was found to be 12 nM in test [1] (setting [5]), 92 nM in test [2], 145 nM in test [3] and 159 nM in test [4].
For the compound `COC(C)(C)c1cc(-c2cnc(N)cc2Cl)nc(N2CCOC[C@@H]2C)n1` [Compound S-75], the IC50 in test [1] (setting [5]) came to 23 nM; in test [1] (setting [6]), 23 nM; in test [2], 943 nM; in test [3], 810 nM; in test [4] it was 131 nM.
Consider `CS(=O)(=O)C1(c2cc(-c3cnc(N)cc3C(F)(F)F)nc(N3CCOCC3)n2)CCCC1` [Compound S-10], for which the IC50 in test [1] (setting [5]) was determined as 42 nM; in test [2], 1140 nM; in test [3] it was 367 nM; in test [4] it was 340 nM.
For the compound `C[C@H]1COCCN1c1nc(-c2cnc(N)cc2Cl)cc(C2(S(C)(=O)=O)CCC2)n1` [Compound S-31], the IC50 in test [1] (setting [5]) was determined as 12 nM; in test [2], 171 nM; in test [3], 103 nM; in test [4], 45 nM.
With `C[C@H]1COCCN1c1nc(-c2cnc(N)cc2F)cc(C(C)(C)S(C)(=O)=O)n1` [Compound S-84], the IC50 in test [1] (setting [5]) worked out at 21 nM; in test [2] it was 812 nM; in test [3] it was 18 nM; in test [4], 15 nM.
As for `CC(C)S(=O)(=O)C1(c2cc(-c3cnc(N)cc3C(F)(F)F)nc(N3CCOCC3)n2)CCC1` [Compound S-19], the IC50 in test [1] (setting [5]) was determined as 80 nM; in test [2] it was 512 nM; in test [3], 493 nM.
For `C[C@H]1COCCN1c1nc(-c2ccc(N)nc2)cc(C2(S(C)(=O)=O)CCC2)n1` [Compound S-32], the IC50 in test [1] (setting [5]) was found to be 76 nM; in test [2] it was 977 nM; in test [3], 161 nM; in test [4], 73 nM.
In the case of `COC(C)(C)c1cc(-c2cnc(N)cc2Cl)nc(N2CCOCC2)n1` [Compound S-76], the IC50 in test [1] (setting [5]) stood at 53 nM; in test [1] (setting [6]), 53 nM; in test [2] it was 316 nM; in test [3] it was 207 nM; in test [4], 66 nM.
Take `C[C@@H]1COCCN1c1nc(-c2cnc(N)cc2Cl)cc(C2(S(C)(=O)=O)CC2)n1` [Compound S-68]: the IC50 in test [1] (setting [5]) came out at 8 nM; in test [1] (setting [6]) it was 8 nM; in test [2], 92 nM; in test [3], 143 nM; in test [4], 94 nM.
Regarding `CS(=O)(=O)C1(c2cc(N3CCOCC3)nc(-c3cnc(N)cc3C(F)(F)F)n2)CC1` [reference compound], the IC50 in test [1] (setting [5]) is 90 nM; in test [2] it was 2160 nM; in test [3], 2580 nM; in test [4], 639 nM.
For `Nc1cc(F)c(-c2cc(C3(S(=O)(=O)C4CC4)CC3)nc(N3CCOCC3)n2)cn1` [Compound S-88], the IC50 in test [1] (setting [5]) came out at 48 nM; in test [1] (setting [6]) it was 48 nM; in test [2], 521 nM; in test [3], 209 nM; in test [4] it was 102 nM.
On to `CC(C)(c1cc(-c2cnc(N)cc2F)nc(N2CCOCC2)n1)S(C)(=O)=O` [Compound S-81], for which the IC50 worked out at 43 nM in test [1] (setting [5]), 812 nM in test [2], 178 nM in test [3] and 104 nM in test [4].
